Results on 5 compounds are retold here after patent publication US20260285816A1, “Piperazinyl-Modified Quinazolinyl-Aryl Urea Derivative, And Preparation Method And Use Thereof” (Guangxi Normal University, priority 2025, published 2026).

Where two headings read alike, the source gives them in different places.

What all share (format): cell-based, human
In assay [1] the test system is J82 cells. Put plainly: CCK-8 anti-proliferative assay, J82. The settings on record: Homo sapiens, J82; Table 6; co-incubated 48 h; read-out: Anti-proliferative activity (IC50 ± standard deviation) J82. The procedure: (§1) The obtained quinazolinyl-aryl urea derivatives were screened for compounds with optimal activity using the following method.
(§2) Experimental Procedure for Anti-Proliferative Activity Evaluation: The CCK-8 assay was employed. Cells in logarithmic growth phase were harvested, adjusted to appropriate density, and uniformly seeded into 96-well plates using a multichannel pipette (180 μL cell suspension containing complete medium per well, 5,000 cells/well). Blank control wells (containing basal medium, CCK-8 solution, and DMSO only) were set. Cells were incubated at 37° C. under 5% CO2. After 70% confluency was reached, test compounds (target compounds/positive controls) were added at final concentrations of 1, 2, 4, 6, 8, 12, 16, 24, and 30 μM (3 repeated wells per concentration). Compounds were pre-dissolved in DMSO, sterilized, and diluted with medium before adding 20 μL/well. After co-incubation for designated durations, 10 μL CCK-8 solution was added per well followed by 1-4 h incubation (different cells have different incubation times). […] Inhibition rates were calculated as: (ODcontrol−ODtreatment)/ODcontrol×100%. Median inhibitory concentrations (IC50 values) were derived using Origin v8.0 software.

Assay [2] deals with UM-UC-3 cells. Put plainly: CCK-8 anti-proliferative assay, UM-UC-3. The settings on record: Homo sapiens, UMUC3, co-incubated 48 h, read-out: Anti-proliferative activity (IC50 ± standard deviation) UM-UC-3. As to the method:
as §1, §2

Assay [3] concerns T24 cells. Put plainly: CCK-8 anti-proliferative assay, T24. To be noted: Homo sapiens, T-24; Table 6; co-incubated 48 h; read-out: Anti-proliferative activity (IC50 ± standard deviation) T24. An excerpt:
(§3) The obtained quinazolinyl-aryl urea derivatives were screened for compounds with optimal activity using the following method. All cell lines employed in this experiment were of human origin, including: bladder cancer cells: J82, UM-UC-3, T24, 5637, pancreatic cancer cells: BxPC-3, PANC-1, osteosarcoma cells: 143B, MG-63, cervical cancer cells: HeLa, breast cancer cells: MCF-7, NSCLC cells: A549, hepatoblastoma cells: Hep G2, and ovarian cancer cells: SK-OV-3, as well as normal cell lines: immortalized ureteral epithelial cells (SV-HUC-1), embryonic lung fibroblasts (WI-38).
(§4) Experimental Procedure for Anti-Proliferative Activity Evaluation: The CCK-8 assay was employed. Cells in logarithmic growth phase were harvested, adjusted to appropriate density, and uniformly seeded into 96-well plates using a multichannel pipette (180 μL cell suspension containing complete medium per well, 5,000 cells/well). Blank control wells (containing basal medium, CCK-8 solution, and DMSO only) were set. Cells were incubated at 37° C. under 5% CO2. After 70% confluency was reached, test compounds (target compounds/positive controls) were added at final concentrations of 1, 2, 4, 6, 8, 12, 16, 24, and 30 μM (3 repeated wells per concentration). Compounds were pre-dissolved in DMSO, sterilized, and diluted with medium before adding 20 μL/well. After co-incubation for designated durations, 10 μL CCK-8 solution was added per well followed by 1-4 h incubation (different cells have different incubation times). The reaction was terminated, and OD (optical density) values at 450 nm were measured using a microplate reader. Inhibition rates were calculated as: (ODcontrol−ODtreatment)/ODcontrol×100%. Median inhibitory concentrations (IC50 values) were derived using Origin v8.0 software.

Assay [4] has as its system 5637 cells. Put plainly: CCK-8 anti-proliferative assay, 5637. To be noted: Homo sapiens; Table 6; co-incubated 48 h; read-out: Anti-proliferative activity (IC50 ± standard deviation) 5637. The procedure: as §1, §2
Assay [5] has as its system 143B cells. Put plainly: CCK-8 anti-proliferative assay, 143B. To be noted: Homo sapiens, 143B, co-incubated 48 h, read-out: Anti-proliferative activity (IC50 ± standard deviation) 143B.
Description: as §3, §4

For assay [6], the system named is MG-63 cells. Put plainly: CCK-8 anti-proliferative assay, MG-63. To be noted: Homo sapiens, MG-63, co-incubated 48 h, read-out: Anti-proliferative activity (IC50 ± standard deviation) MG-63.
Description: as §3, §4

The test system of assay [7] is BxPC-3 cells. In words: CCK-8 anti-proliferative assay, BxPC-3. To be noted: Homo sapiens, BXPC-3, co-incubated 48 h, read-out: Anti-proliferative activity (IC50 ± standard deviation) BxPC-3.
Description: as §3, §4

Assay [8] concerns PANC-1 cells. Put plainly: CCK-8 anti-proliferative assay, PANC-1. To be noted: Homo sapiens, PANC-1, co-incubated 48 h, read-out: Anti-proliferative activity (IC50 ± standard deviation) PANC-1.
Description: as §3, §4

The subject of assay [9] is HeLa cells. Put plainly: CCK-8 anti-proliferative assay, HeLa. To be noted: Homo sapiens, HeLa; Table 8; co-incubated 48 h; read-out: Anti-proliferative activity (IC50 ± standard deviation) HeLa. The procedure: as §1, §2
The subject of assay [10] is MCF-7 cells. Put plainly: CCK-8 anti-proliferative assay, MCF-7. To be noted: Homo sapiens, MCF7; Table 8; co-incubated 48 h; read-out: Anti-proliferative activity (IC50 ± standard deviation) MCF-7. The procedure: as §1, §2
Assay [11] concerns A549 cells. Put plainly: CCK-8 anti-proliferative assay, A549. To be noted: Homo sapiens, A549; Table 8; co-incubated 48 h; read-out: Anti-proliferative activity (IC50 ± standard deviation) A549. As to the method: as §1, §2
Assay [12] deals with Hep G2 cells. In words: CCK-8 anti-proliferative assay, Hep G2. The settings on record: Homo sapiens, HepG2; Table 8; co-incubated 48 h; read-out: Anti-proliferative activity (IC50 ± standard deviation) Hep G2.
Description: as §3, §4

For assay [13], the system named is SK-OV-3 cells. Put plainly: CCK-8 anti-proliferative assay, SK-OV-3. To be noted: co-incubated 48 h, read-out: Anti-proliferative activity (IC50 ± standard deviation) SK-OV-3. As to the method: as §1, §2
Assay [14] has as its system immortalized ureteral epithelial cells (SV-HUC-1). In words: CCK-8 anti-proliferative assay, normal cells SV-HUC-1. The settings on record: read-out: Anti-proliferative activity (IC50 ± standard deviation) SV-HUC-1. As to the method: as §1, §2
The test system of assay [15] is embryonic lung fibroblasts (WI-38). In words: CCK-8 anti-proliferative assay, normal cells WI-38. To be noted: Homo sapiens, WI-38, Table 9, co-incubated 48 h, read-out: Anti-proliferative activity (IC50 ± standard deviation) WI-38.
Description: as §3, §4

Where [16] appears, read: Homo sapiens, SV-HUC1, Table 9, normal cells, co-incubated 48 h.
Setting [17] is: Table 14, comparative compounds.
Where [18] appears, read: Table 15, comparative compounds.

As for `COc1cc2ncnc(NCc3cccc(NC(=O)Nc4ccc(Cl)c(C(F)(F)F)c4)c3)c2cc1OCCCCCCN1CCN(CCN2CCOCC2)CC1` [Compound 8-1r], the IC50 in [1] worked out at 6.33 ± 0.61 µM; in assay [2] (Table 6), 6.14 ± 0.53 µM; in [3], 3.91 ± 0.34 µM; in [4], 3.59 ± 0.16 µM; in assay [5] (Table 7), 5.41 ± 0.39 µM; in assay [6] (Table 7), 5.31 ± 0.46 µM. Also, the IC50 worked out at 7.39 ± 0.62 µM in [7] (Table 7); 11.9 ± 0.94 µM in [8] (Table 7); 5.76 ± 0.57 µM in assay [9]; 4.12 ± 0.15 µM in [10]; 8.62 ± 0.55 µM in assay [11]; 5.59 ± 0.45 µM in assay [12]. Further, the 50% inhibitory concentration (IC50) in assay [13] (Homo sapiens, SK-OV-3, Table 9) came to 8.51 ± 0.87 µM; in assay [14] (setting [16]) it was 7.02 ± 0.53 µM; in assay [15], 7.89 ± 0.66 µM.
`COc1cc2ncnc(NCc3cccc(NC(=O)Nc4ccccc4Cl)c3)c2cc1OCCCCCCN1CCN(CCN2CCOCC2)CC1` [Compound 8-1m, N-(3-(((7-methoxy-6-((6-(4-(2-morpholinoethyl)piperazin-1-yl)hexyl)oxy)quinazolin-4-yl)amino)methyl)phenyl)-N′-(2-chlorophenyl)urea]: the IC50 in assay [1] stood at 7.21 ± 0.66 µM; in [2] (Table 6), 11.1 ± 0.74 µM; in assay [3], 8.82 ± 0.49 µM; in assay [4] it was 6.06 ± 0.58 µM; in [5] (Table 7) it was 5.62 ± 0.51 µM; in assay [6] (Table 7), 5.69 ± 0.65 µM. The IC50 turned out to be 7.79 ± 0.44 µM in assay [7] (Table 7); 23.2 ± 2.03 µM in [8] (Table 7); 13.8 ± 0.77 µM in assay [9]; 14.8 ± 0.86 µM in assay [10]; 15 ± 0.93 µM in assay [11]; 7.83 ± 0.66 µM in assay [12]. The IC50 in [13] (Homo sapiens, SK-OV-3, Table 9) stood at 12.8 ± 0.42 µM; in assay [14] (setting [16]) it was 12 ± 0.57 µM; in assay [15] it was 14 ± 0.78 µM.
As for `CNC(=O)c1cc(Oc2ccc(NC(=O)Nc3ccc(Cl)c(C(F)(F)F)c3)c(F)c2)ccn1` [Reg, regorafenib, reference compound], the IC50 in assay [14] (Homo sapiens, SV-HUC1, 48 h) amounted to 11.4 ± 0.69 µM.
For `[NH2][Pt]([NH2])([Cl])[Cl]` [CDDP, cisplatin, reference compound], the IC50 in [13] (Table 9) is 9.89 ± 0.97 µM; in assay [14] (Table 9, normal cells, co-incubated 48 h), 10.3 ± 0.68 µM.
On to `COc1cc2ncnc(NCc3cccc(NC(=O)Nc4ccccc4)c3)c2cc1OC` [Compound I-1, reference compound], for which the IC50 in [2] (setting [17]) is over 30 µM; in assay [5] (setting [17]) it was 18.3 ± 1.74 µM; in assay [6] (setting [17]), 27.1 ± 1.45 µM; in assay [7] (setting [18]), 18.6 ± 1.66 µM; in [8] (setting [18]) it was over 30 µM; in assay [13] (Homo sapiens, SK-OV-3, Table 15, comparative compounds) it was 28.4 ± 1.46 µM.
